Results as given in the CheMixHub viscosity set.

Experiment: xn = mol fraction of the nth substance listed

Clc1cccc2ccccc12 + Cc1cc(C)cc(C)c1
viscosity [mPa·s], 101.33 kPa
Settings	x1 = 0.0983	x1 = 0.2041	x1 = 0.2992	x1 = 0.3988	x1 = 0.4984	x1 = 0.6008	x1 = 0.6999	x1 = 0.8017	x1 = 0.9016
298.15 K	0.688	0.807	0.929	1.086	1.251	1.476	1.706	2.019	2.376
303.15 K	0.644	0.753	0.863	1.003	1.15	1.346	1.551	1.826	2.138
308.15 K	0.605	0.703	0.803	0.927	1.062	1.239	1.419	1.661	1.935

CCc1ccccc1 + CO
viscosity [mPa·s], 101 kPa
Settings	x2 = 0.1406	x2 = 0.3326	x2 = 0.5278	x2 = 0.6721	x2 = 0.7828	x2 = 0.8113	x2 = 0.8848
298.15 K	0.6135	0.6134	0.6258	0.6323	0.6247	0.618	0.5991
308.15 K	0.5262	0.5283	0.5395	0.5368	0.525	0.5202	0.5052
